SMILES	melting point [°C]
CCCc1c(CSc2nnc(SCCCCCCC(=O)O)s2)ccc(C(C)=O)c1O	63 to 68
O=C(c1ccc(Cl)cc1)c1ccc(Cl)[nH]1	210 to 211
COc1c(Cl)cc(C(=O)Cl)cc1Cl	153 to 157
CSCc1nn(CCC#N)c(O)c1C	98
COc1ccccc1CN[C@@H]1[C@@H]2CCN([C@H](CCc3ccccc3)C2)[C@@H]1C(c1ccccc1)c1ccccc1 (relative stereo)	107 to 108
O=c1c2cc(Cl)ccc2nc2n1CS(=O)(=O)N2	> 300
CCOC(=O)c1ncn2c(-c3ccccc3)ccnc12	200 to 204
NS(=O)(=O)c1cc(Cl)ccc1S	142 to 144
O=C1NC(=O)C(c2ccsc2)O1 (stereo unspecified)	133 to 135
COc1cc2ncnc(N3CCNCC3)c2cc1OC	178 to 179
CCCCCCc1sc(C(=O)O)c2c1-c1c(cnn1C)CC2	242 to 243
CC1Oc2ccc(CCl)cc2NC1=O (stereo unspecified)	162 to 169
CCOC(=O)c1c(Cl)c2cnccc2[nH]c1=O	219
CC(C)Oc1cc(-n2nc(C(C)(C)C)oc2=O)ccc1F	72.5 to 74
CCCCCCCCCCCCCCc1cccc(O)c1	38 to 40
C=CC1(F)CN(C2CCCC2)c2nc(Nc3ccc(C(=O)NC4CCCNC4)cc3OC)ncc2N(C)C1=O (stereo unspecified)	169 to 172
Nc1ccc(C(CC2CCCC2)C(=O)Nc2nccs2)cc1 (stereo unspecified)	102 to 107

SMILES	melting point [°C]
CC1(C)CC(C(O)CNc2nc(NCC(O)C3CC(C)(C)NC(C)(C)C3)nc(NCC(O)C3CC(C)(C)NC(C)(C)C3)n2)CC(C)(C)N1 (stereo unspecified)	176 to 178
O=C(c1ccccc1)c1cc(Cl)ccc1-n1ccnc1	106 to 108
CSC(C(=O)O)c1ccco1 (stereo unspecified)	62 to 62.5
O=C1CCC(CC(O)C(=O)OCc2ccccc2)N1 (stereo unspecified)	95 to 96
Cc1oc(C2(C)CCCCC2)nc1CC#N	57 to 58
C#Cc1cnc2ccc(OC(SC)C(=O)NC(C)(C#C)CO)cc2c1 (stereo unspecified)	149 to 150
CCOC(=O)C1CC(=O)C(N=Nc2ccc(Br)cc2)=C(O)C1 (stereo unspecified)	169 to 171
CC(C)[C@H]1C(C(F)(F)F)OC(=O)N1Cc1ccccc1 (stereo partly specified)	92 to 93
N#Cc1ccc2[nH]cc(CCNCC(F)(F)F)c2c1	102
COC(=O)[C@@H]1C(=O)CC[C@H]1C(=O)OC (relative stereo)	49 to 50
COCCOc1cc(/C=C/C(=O)NS(=O)(=O)CCC(C)C)n(Cc2ccc(C(F)(F)F)cc2Cl)n1	114 to 116
Cc1nnc2n1-c1sc(CCC(=O)N3CCOCC3)cc1C(c1ccccc1Cl)=NC2C (stereo unspecified)	162 to 163
COC(CO)(OC)C1(c2ccc(Cl)cc2)CCC1	73 to 74
O=C(c1cc(-c2ccncc2)c(N2CCOCC2)s1)c1ccc(Cl)cc1Cl	180
O=C(Cl)N1CCOCC1	138 to 139
CNCC1Oc2cc(F)cc(-c3ccccc3Cl)c2O1 (stereo unspecified)	132 to 134
N#CNC(=Nc1ccncc1)NCCSc1ccccc1	161 to 163

Next, values leading:

melting point [°C]	SMILES
156 to 158	O=c1cc(CCCCBr)c2ccccc2[nH]1
144 to 146	COc1ccc(CN(C)CCCc2ccc(NC(=O)c3cccc4c(=O)c5cccc(OC)c5sc34)cc2)cc1OC
269	CCCc1ccc(-c2[nH]nc3c2C(=O)c2c(NC(C)=O)cccc2-3)cc1
100	CCOC(=O)Nc1c(C(=O)OCC)oc2cc(OCc3ccccc3)ccc12
220 to 222	COc1cc(OC)cc(N2Cc3cnc(S(C)=O)nc3NC2=O)c1 (stereo unspecified)
87 to 90	COC(=O)c1cccc(CCN(C)CCCC(C(=O)OC)(c2ccc(OC)c(OC)c2)C(C)C)c1 (stereo unspecified)
165	Clc1ccc(CN2CC=C(/C=C/c3ccc4[nH]ccc4c3)CC2)cc1
131 to 132	COc1ccc(S(=O)(=O)Nc2ccccc2C=Cc2cccnc2)cc1
192	Cn1cc(-c2cccc(Cl)c2)c(=O)c(-c2cccc(Br)c2)c1
168 to 169	COc1cc(-c2c(-c3ccncc3)c(-c3ccc(F)cc3)nn2CCO)ccn1
85 to 87	CC(C)CN(OCc1ccccc1)C(=O)Nc1ccccc1
140 to 143	CN(CCc1ccccc1)C(=O)Cn1cc(C=C(C(=O)O)C(C)(C)C)c2cc([N+](=O)[O-])ccc21
220 to 222	CC(=C1SC(=O)NC1=O)c1ccc(OCCOc2c(-c3ccccc3F)n(C)c3ccccc3c2=O)c(Cl)c1
87 to 89	Cc1cc(S(N)(=O)=O)ccc1-n1nc(C(F)(F)F)cc1-c1ccc(-c2ccco2)cc1
224 to 226	CC(=O)N=c1sccn1CC(=O)c1cccc(NC(C)=O)c1
173	CC(C)(OC(=O)Cc1cccc(F)c1)C(=O)c1ccc(S(C)(=O)=O)cc1
219 to 220	Cc1nc(-n2ccc(OCc3ccccc3)cc2=O)sc1C(=O)NCc1ccccc1
> 330	CNC(=O)c1nc(-c2cccnc2)nc2c1[nH]c(=O)n2-c1ccccc1
248 to 251	CSc1nc(C)c(Cc2ccc(Cl)cc2)c(=O)[nH]1

melting point [°C]	SMILES
132 to 134	CCC(=O)ON=C(c1ccccc1)c1cc(C(C)(C)C)c(O)c(C(C)(C)C)c1
255	CCN1C(=O)CCC(C)(C)c2cc(Nc3ncc(Cl)c(Nc4ccc(N5CCOCC5)cc4OC)n3)ccc21
157 to 161	CCOC(=O)CC(O)(CC)c1cc2n(c(=O)c1CO)Cc1cc3ccccc3nc1-2 (stereo unspecified)
117 to 119	COC(=O)c1ccc(NN=CC(F)(F)F)cc1S(=O)(=O)NC(=O)Nc1nc(OC)nc(OC)n1
194 to 196	CC(=O)Oc1ccc(-n2c(-c3ccccc3)cc3c2CCc2ccccc2-3)cc1C(=O)O
138 to 140	COc1ccc(C(=O)c2cccc(CC(=O)O)c2)cc1
187 to 191	COc1cc(OCC2CC2)c(/C=C/C(=O)c2ccc(C(=O)O)cc2)cc1-c1cccs1
172 to 173	O=[N+]([O-])CCN1CCC(n2ccc(-c3ccc(F)cc3)c2-c2ccncc2)CC1
204 to 206	O=C(Nc1ccc2nc(CN3CCCC3)ccc2c1)C1CCN(c2ccc(Cl)cc2)CC1
209 to 210	CC(C)S(=O)(=O)n1c(N)nc2ccc(C(O)(CC(=O)N(C)C)c3ccccc3)cc21 (stereo unspecified)
172	Cc1ccc(S(=O)(=O)n2c(CCCC(=O)O)cc3nc(Cl)ccc32)cc1
363 to 365	NC(=O)c1nc(-c2cccc(O)c2)nc2c1[nH]c(=O)n2-c1ccccc1C(F)(F)F
195	CC(C)Cc1ccccc1Sc1c(O)cc(-c2ccccc2)oc1=O
106	COC(=O)c1ccc(/C=C(\C)c2ccc3c(c2)CCCCN3C)cc1
182	COc1ccc(C(=O)O)c(Oc2ccc(C(F)(F)F)cc2NS(=O)(=O)c2cc(C(F)(F)F)cc(C(F)(F)F)c2)c1
207 to 209	O=c1c2cccnc2n(-c2cccc([N+](=O)[O-])c2)c(=O)n1Cc1ccncc1
214 to 216	CCCOc1ccccc1-c1nc2nc(NCC(F)(F)F)ncc2c(=O)[nH]1
133 to 135	O=C1CCC(N2Cc3c(OCc4ccc(CN5CCN(CC(F)(F)F)CC5)cc4)cccc3C2=O)C(=O)N1 (stereo unspecified)

From a melting point compilation (Tetko et al.; mined from patent text by program, amines drawn as free bases though some values may be those of a salt)
